Results as given in ChEMBL document CHEMBL4393688, “Synthesis, in vitro and in vivo characterization of new benzoxazole and benzothiazole-based sigma receptor ligands” (Eur J Med Chem, 2019).
Activity calls are given as the source filed them. The rule behind the calls is not given here.

How the values were obtained:
[1] = biological target: Sigma non-opioid intracellular receptor 1 (Cavia porcellus, UniProt Q60492); experiment: Displacement of [3H]-(+)-pentazocine from sigma1 receptor in guinea pig brain membranes incubated for 150 mins by scintillation counting method; assay type: cell membranes
Chain of Sigma non-opioid intracellular receptor 1 (Q60492 whole entry): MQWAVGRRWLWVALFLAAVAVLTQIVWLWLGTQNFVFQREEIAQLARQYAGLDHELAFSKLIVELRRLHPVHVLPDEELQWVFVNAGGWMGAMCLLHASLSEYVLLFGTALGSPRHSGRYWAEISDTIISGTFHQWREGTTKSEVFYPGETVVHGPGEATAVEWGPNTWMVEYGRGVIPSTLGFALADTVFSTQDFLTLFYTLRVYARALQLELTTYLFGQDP

[2] = biological target: Sigma intracellular receptor 2 (Homo sapiens, UniProt Q5BJF2); experiment: Displacement of [3H]-DTG from sigma2 receptor (unknown origin) incubated for 120 mins by scintillation counting method
Chain of Sigma intracellular receptor 2 (Q5BJF2 whole entry): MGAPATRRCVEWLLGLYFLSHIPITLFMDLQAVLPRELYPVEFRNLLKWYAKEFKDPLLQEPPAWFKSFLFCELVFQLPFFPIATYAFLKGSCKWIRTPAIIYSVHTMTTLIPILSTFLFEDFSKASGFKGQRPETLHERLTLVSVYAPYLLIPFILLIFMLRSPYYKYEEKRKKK

[3] = Selectivity ratio of Ki for sigma2 receptor (unknown origin) to Ki for sigma1 receptor in guinea pig brain cortex membranes; assay type: cell membranes
MCF7 [4] = experiment: Induction of apoptosis in human MCF7 cells assessed as increase in caspase-3 activity at 20 uM incubated for 24 hrs by Ac-DEVD-pNA substrate-based colorimetric assay; assay type: functional, cell-based
MCF7 [5] = experiment: Cytotoxicity against human MCF7 cells assessed as reduction in cell viability incubated for 24 hrs by MTT assay; assay type: functional, cell-based; details: MCF7, 24 h
Mus musculus [6] = experiment: Analgesic activity in formalin-induced nociception mouse model assessed as decrease in time spent on licking or flinching formalin injected right hind paw during early nociceptive phase at 2.5 to 5 mg/kg, ip administered 15 mins prior to formalin challenge measured at 5 mins interval for 10 mins; assay type: functional, organism-based
Mus musculus [7] = experiment: Analgesic activity in formalin-induced nociception mouse model assessed as decrease in time spent on licking or flinching formalin injected right hind paw during inflammatory phase at 2.5 to 5 mg/kg, ip administered 15 mins prior to formalin challenge measured at 5 mins interval for 10 to 60 mins; assay type: functional, organism-based

Structure (SMILES)	Ki [1] [nM]	Ki [2] [nM]	Ratio Ki [3]	Activity (MCF7 [4])	IC50 (MCF7 [5]) [nM]	Activity (Mus musculus [6])	Activity (Mus musculus [7])
Clc1ccc2oc(SCCCCN3CCCCCC3)nc2c1	2.4	11	4.6	–	–	–	–
O=c1sc2ccc(Cl)cc2n1CCCCN1CCCCCC1	0.78	7.61	9.7	Active	27800	inactive	Active
Clc1ccc2oc(SCCCN3CCCCCC3)nc2c1	2.35	16	6.2	–	–	–	–
Clc1ccc2sc(SCCCN3CCCCCC3)nc2c1	1.27	7.9	6.8	Active	20500	inactive	inactive
O=c1oc2ccc(Cl)cc2n1CCCCN1CCCCCC1	2.3	3.8	1.6	Active	44800	Active	Active
O=c1oc2ccc(Cl)cc2n1CCN1CCCCCC1	99	652	6.6	–	–	–	–
O=C(CCCN1CCC(O)(c2ccc(Cl)cc2)CC1)c1ccc(F)cc1 [HALOPERIDOL]	–	–	–	Active	20200	–	–
O=c1oc2ccc(Cl)cc2n1CCCN1CCCCCC1	6.3	64.1	10.2	–	–	–	–
CC[C@H]1C[C@@H]2C[C@H]3c4[nH]c5ccc(OC)cc5c4CC[N@@](C2)[C@@H]13	–	–	–	Active	29600	–	–
O=c1sc2ccc(Cl)cc2n1CCN1CCCCCC1	180	1670	9.3	–	–	–	–
Clc1ccc2sc(SCCN3CCCCCC3)nc2c1	407	> 1000	> 2.4	–	–	–	–
Clc1ccc2oc(SCCN3CCCCCC3)nc2c1	1.93	87	45	–	–	–	–
Clc1ccc2sc(SCCCCN3CCCCCC3)nc2c1	8.44	21.8	2.6	–	–	–	–
O=c1sc2ccc(Cl)cc2n1CCCN1CCCCCC1	7.4	68.8	9.3	–	–	–	–
